Data as given in patent US20260256792A1, “TREATMENT OF CHRONIC SPONTANEOUS URTICARIA BY ADMINISTERING (R)-2-[3-[4-AMINO-3-(2-FLUORO-4-PHENOXY-PHENYL)PYRAZOLO[3,4-D]PYRIMIDIN-1-YL]PIPERIDINE-1-CARBONYL]-4-METHYL-4-[4-(OXETAN-3-YL)PIPERAZIN-1-YL]PENT-2-ENENITRILE” (priority 2023, published 2026).

System: angioedema in CSU patients
Assay: Phase 2 CSU study: angioedema activity score over 7 days (AAS7)
Assay type: in vivo, human
Settings: 400 mg BID; for AAS7 % Change difference for rilzabrutinib vs. placebo LS Mean (95% CI) / AAS7 % Change from baseline LS Mean (SE) / AAS7 Change difference for rilzabrutinib vs. placebo LS Mean (95% CI) / AAS7 Change from baseline LS Mean (SE) / AAS7 Post-baseline Mean (SD) / AAS7 = 0, Non-responder n (%) / AAS7 = 0, OR (95% CI) for rilzabrutinib vs. placebo / AAS7 = 0, RRD (%) for rilzabrutinib vs. placebo (95% CI) / Participants with AAS7 = 0, Responder n (%): angioedema at baseline; for Non-responder n (%), AAS7 = 0 / RRD (%) for rilzabrutinib vs. placebo (95% CI), AAS7 = 0 / Responder n (%), AAS7 = 0 / OR (95% CI) for rilzabrutinib vs. placebo, AAS7 = 0: outlier removed
Text: The study comprises a 12 week, randomized, double-blind, placebo-controlled, multi-center, dose-ranging efficacy and safety phase, followed by a 40 week open label extension (OLE) phase (see FIG. 1). The study consists of three phases and an optional OLE phase. […] The weekly angioedema activity score (AAS7) was proposed as a tertiary endpoint. […] Patients were to complete the AAS using the e-diary. The e-diary was to be used once daily on the same time of each day recording of participant's answers to the angioedema activity score over 7 days (AAS7) questionnaire.

Question: How did the “AAS7 % Change difference for rilzabrutinib vs. placebo LS Mean (95% CI)” value (from here on “AAS7 % Change difference … (95% CI)”) (Week 1, ITT) turn out when `CC(C)(C=C(C#N)C(=O)N1CCC[C@@H](n2nc(-c3ccc(Oc4ccccc4)cc3F)c3c(N)ncnc32)C1)N1CCN(C2COC2)CC1` [rilzabrutinib, (R)-2-[3-[4-amino-3-(2-fluoro-4-phenoxy-phenyl)pyrazolo[3,4-d]pyrimidin-1-yl]piperidine-1-carbonyl]-4-methyl-4-[4-(oxetan-3-yl)piperazin-1-yl]pent-2-enenitrile] was run?
Answer: Its value is −40.37 (−70.92, −9.83) %.

Question: And the “AAS7 % Change from baseline LS Mean (SE)” value (Week 1, ITT)?
Answer: Its value is −60.34 (9.85) %.

Question: And the “AAS7 Change difference for rilzabrutinib vs. placebo LS Mean (95% CI)” value (“AAS7 Change difference … (95% CI)” below) (Week 1, ITT)?
Answer: The value was −9.84 (−22.84, 3.16).

Question: And the “AAS7 Change from baseline LS Mean (SE)” value (Week 1, ITT)?
Answer: Its value is −24.34 (4.19).

Question: And the “AAS7 Post-baseline Mean (SD)” value (Week 1, ITT)?
Answer: Its value is 23.35 (30.86).

Question: And the “Non-responder n (%), AAS7 = 0” value (Week 1, omalizumab-naïve)?
Answer: Its value is 16 (45.7) n (%).

Question: And the “RRD (%) for rilzabrutinib vs. placebo (95% CI), AAS7 = 0” value (shortened to “RRD (%) … (95% CI), AAS7 = 0”) (Week 1, omalizumab-naïve)?
Answer: The value was 23.4 %.

Question: What about the “Responder n (%), AAS7 = 0” value (Week 1, omalizumab-naïve) of the same molecule?
Answer: Its value is 19 (54.3) n (%).

Question: And the “AAS7 % Change difference … (95% CI)” value (Week 1, omalizumab-naïve)?
Answer: The value was −42.17 (−75.41, −8.93) %.

Question: And the “AAS7 = 0, Non-responder n (%)” value (Week 1, omalizumab-naïve)?
Answer: The value was 15 (57.7) n (%).

Question: And the “AAS7 = 0, OR (95% CI) for rilzabrutinib vs. placebo” value (“AAS7 = 0, OR (95% CI)” for short) (Week 1, omalizumab-naïve)?
Answer: Its value is 20.850.

Question: What about the “AAS7 = 0, RRD (%) for rilzabrutinib vs. placebo (95% CI)” value (from here on “AAS7 = 0, RRD (%) … (95% CI)”) (Week 1, omalizumab-naïve) of the same molecule?
Answer: The value was 35.1 %.

Question: And the “AAS7 Change difference … (95% CI)” value (Week 1, omalizumab-naïve)?
Answer: The value was −9.69 (−23.74, 4.37).

Question: And the “AAS7 Change from baseline LS Mean (SE)” value (Week 1, omalizumab-naïve)?
Answer: Its value is −23.46 (4.42).

Question: What about the “AAS7 Post-baseline Mean (SD)” value (Week 1, omalizumab-naïve) of the same molecule?
Answer: Its value is 25.15 (31.33).

Question: What about the “Participants with AAS7 = 0, Responder n (%)” value (“Participants … (%)” for short) (Week 1, omalizumab-naïve) of the same molecule?
Answer: Its value is 11 (42.3) n (%).

Question: What about the “AAS7 % Change difference … (95% CI)” value (Week 2, ITT) of the same molecule?
Answer: The value was −8.15 (−40.12, 23.82) %.

Question: And the “AAS7 % Change from baseline LS Mean (SE)” value (Week 2, ITT)?
Answer: Its value is −49.52 (12.60) %.

Question: And the “AAS7 Change difference … (95% CI)” value (Week 2, ITT)?
Answer: Its value is −5.96 (−17.22, 5.30).

Question: And the “AAS7 Change from baseline LS Mean (SE)” value (Week 2, ITT)?
Answer: Its value is −26.86 (4.43).

Question: What about the “AAS7 Post-baseline Mean (SD)” value (Week 2, ITT) of the same molecule?
Answer: Its value is 22.75 (28.74).

Question: What about the “Non-responder n (%), AAS7 = 0” value (Week 2, omalizumab-naïve) of the same molecule?
Answer: The value was 18 (51.4) n (%).

Question: What about the “OR (95% CI) for rilzabrutinib vs. placebo, AAS7 = 0” value (Week 2, omalizumab-naïve) of the same molecule?
Answer: The value was 1.366.

Question: And the “RRD (%) … (95% CI), AAS7 = 0” value (Week 2, omalizumab-naïve)?
Answer: Its value is 8.2 %.

Question: And the “Responder n (%), AAS7 = 0” value (Week 2, omalizumab-naïve)?
Answer: The value was 17 (48.6) n (%).

Question: What about the “AAS7 % Change difference … (95% CI)” value (Week 2, omalizumab-naïve) of the same molecule?
Answer: Its value is −9.47 (−44.02, 25.08) %.

Question: What about the “AAS7 % Change from baseline LS Mean (SE)” value (Week 2, omalizumab-naïve) of the same molecule?
Answer: Its value is −46.69 (13.31) %.

Question: What about the “AAS7 = 0, Non-responder n (%)” value (Week 2, omalizumab-naïve) of the same molecule?
Answer: The value was 17 (65.4) n (%).

Question: And the “AAS7 = 0, OR (95% CI)” value (Week 2, omalizumab-naïve)?
Answer: The value was 2.012.

Question: And the “AAS7 = 0, RRD (%) … (95% CI)” value (Week 2, omalizumab-naïve)?
Answer: Its value is 14.6 %.

Question: What about the “AAS7 Post-baseline Mean (SD)” value (Week 2, omalizumab-naïve) of the same molecule?
Answer: Its value is 24.57 (29.12).

Question: What about the “Participants … (%)” value (Week 2, omalizumab-naïve) of the same molecule?
Answer: Its value is 9 (34.6) n (%).

Question: And the “AAS7 % Change difference … (95% CI)” value (Week 3, ITT)?
Answer: Its value is −7.33 (−47.50, 32.83) %.

Question: And the “AAS7 % Change from baseline LS Mean (SE)” value (Week 3, ITT)?
Answer: Its value is −55.85 (15.71) %.

Question: What about the “AAS7 Change difference … (95% CI)” value (Week 3, ITT) of the same molecule?
Answer: The value was −11.42 (−22.95, 0.12).

Question: What about the “AAS7 Change from baseline LS Mean (SE)” value (Week 3, ITT) of the same molecule?
Answer: The value was −35.57 (4.51).

Question: What about the “AAS7 Post-baseline Mean (SD)” value (Week 3, ITT) of the same molecule?
Answer: The value was 14.81 (20.54).

Question: What about the “Non-responder n (%), AAS7 = 0” value (Week 3, omalizumab-naïve) of the same molecule?
Answer: The value was 15 (42.9) n (%).

Question: What about the “OR (95% CI) for rilzabrutinib vs. placebo, AAS7 = 0” value (Week 3, omalizumab-naïve) of the same molecule?
Answer: The value was 2.357.

Question: And the “RRD (%) … (95% CI), AAS7 = 0” value (Week 3, omalizumab-naïve)?
Answer: Its value is 21.6 %.

Question: What about the “Responder n (%), AAS7 = 0” value (Week 3, omalizumab-naïve) of the same molecule?
Answer: Its value is 20 (57.1) n (%).

Question: And the “AAS7 % Change difference … (95% CI)” value (Week 3, omalizumab-naïve)?
Answer: Its value is −5.01 (−48.85, 38.83) %.

Question: And the “AAS7 % Change from baseline LS Mean (SE)” value (Week 3, omalizumab-naïve)?
Answer: The value was −52.68 (16.72) %.

Question: And the “AAS7 = 0, Non-responder n (%)” value (Week 3, omalizumab-naïve)?
Answer: Its value is 15 (57.7) n (%).

Question: And the “AAS7 = 0, OR (95% CI)” value (Week 3, omalizumab-naïve)?
Answer: The value was 2.703.

Question: And the “AAS7 = 0, RRD (%) … (95% CI)” value (Week 3, omalizumab-naïve)?
Answer: The value was 20.8 %.

Question: And the “AAS7 Post-baseline Mean (SD)” value (Week 3, omalizumab-naïve)?
Answer: The value was 15.95 (20.90).

Question: And the “Participants … (%)” value (Week 3, omalizumab-naïve)?
Answer: Its value is 11 (42.3) n (%).

Question: What about the “AAS7 % Change from baseline LS Mean (SE)” value (Week 4, ITT) of the same molecule?
Answer: The value was −60.60 (13.93) %.

Question: And the “AAS7 Change difference … (95% CI)” value (Week 4, ITT)?
Answer: The value was −12.73 (−23.88, −1.58).

Question: What about the “AAS7 Change from baseline LS Mean (SE)” value (Week 4, ITT) of the same molecule?
Answer: Its value is −35.34 (4.34).

Question: What about the “AAS7 Post-baseline Mean (SD)” value (Week 4, ITT) of the same molecule?
Answer: The value was 13.70 (17.64).

Question: And the “Non-responder n (%), AAS7 = 0” value (Week 4, omalizumab-naïve)?
Answer: The value was 17 (48.6) n (%).

Question: And the “OR (95% CI) for rilzabrutinib vs. placebo, AAS7 = 0” value (Week 4, omalizumab-naïve)?
Answer: Its value is 1.361.

Question: What about the “RRD (%) … (95% CI), AAS7 = 0” value (Week 4, omalizumab-naïve) of the same molecule?
Answer: Its value is 7.4 %.

Question: What about the “Responder n (%), AAS7 = 0” value (Week 4, omalizumab-naïve) of the same molecule?
Answer: The value was 18 (51.4) n (%).

Question: And the “AAS7 % Change difference … (95% CI)” value (Week 4, omalizumab-naïve)?
Answer: The value was −28.19 (−67.14, 10.77) %.

Question: And the “AAS7 % Change from baseline LS Mean (SE)” value (Week 4, omalizumab-naïve)?
Answer: Its value is −58.12 (14.75) %.

Question: And the “AAS7 = 0, Non-responder n (%)” value (Week 4, omalizumab-naïve)?
Answer: Its value is 15 (57.7) n (%).
